Molecules are shown by their SMILES.

In the test the target is T1, SYK (Homo sapiens, UniProt P43405).
T1 construct: purchased Thermo Fisher Scientific (Life Technologies) SelectScreen
Briefly: SelectScreen Z'LYTE. In kind it is biochemical. In outline:
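NU5455 was profiled across the SelectScreen Broad panel of kinase activity and binding assays. Z'LYTE reactions such as CSF1R ran at apparent Km ATP, while the Adapta CAMK1 assay used ATP listed as 10. Values are given as percent.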

Turning to `CN(C(=O)CN1CCOCC1)c1ccc2sc3c(-c4cccc5c(=O)cc(N6CC7CCC(C6)O7)oc45)cccc3c2c1` [NU5455], the inhibition (usually the drop in the measured response relative to a control, in per cent) at 1 µM was -0.2%.

These data come from publication PMC6934184, “Selective DNA-PKcs inhibition extends the therapeutic index of localized radiotherapy and chemotherapy” (The Journal of Clinical Investigation, 2019).
